Results from PubChem BioAssay AID2060490 (Molecular Pharmacology Branch, DTP, NCI, 2025).

Test system: 885512-296-R-J2-PDC complex spheroid viability
Assay: Anticancer human tumor 885512-296-R-J2-PDC patient-derived breast carcinoma cell line growth inhibition [GQUAD]
Details: for IC50: curve of first compound; for viability, T/C: stronger effect = lower value
Text: DNA G-quadruplex Stabilizer Agents in Combinations in Complex Spheroids
A high-throughput screen of multi-cell type tumor spheroids was designed to identify active combinations of DNA G-quadruplex stabilizer agents and targeted small molecules. Complex spheroids include a stromal component modeled by human endothelial cells (HUVEC) and fibroblasts modeled by human mesenchymal stem cells (MSCs). The concentration ranges selected for each drug and investigational agent were based upon clinically achievable concentrations if the clinical Cmax of the agent was known.
Compounds. The drugs and investigational agents: pidnarulex (CX-5461; NSC782164), APTO-253 (NSC789042), BRACO-19 (NSC847499), peposertib (NSC802822), ceralasertib (NSC780249), elimusertib (NSC800525), camonsertib (NSC841442), AZD-1390 (NSC803789), olaparib (NSC753686), talazoparib (NSC767125), ART-558 (NSC835418), sotorasib (NSC818433), MRTX-1133 (NSC836407), SN-38 (NSC673596), topotecan (NSC609699), etoposide (NSC141540), doxorubicin (NSC123127), gemcitabine (NSC613327), 5-fluorouracil (NSC19893), paclitaxel (NSC125973), vemurafenib (NSC761431), panobinostat (NSC761190), R-306465 (JNJ-16241199; NSC773264), adavosertib (NSC754352), TP-3654 (NSC805149), carboplatin (NSC241240), KSQ-4279 (NSC840948), and staurosporine (NSC755774) were obtained from the National Cancer Institute (NCI) Developmental Therapeutics Program Chemical Repository (34). The FDA-approved anticancer drug set is available from the NCI Developmental Therapeutics Program. […] The stock solutions were prepared in dimethyl sulfoxide (DMSO, Sigma-Aldrich, St. Louis, MO, cat. D2650) at 800-fold the tested concentration and stored at -70 degrees C prior to their use. All drugs and investigational agents were tested over a range starting from a high concentration at or near the clinical Cmax and decreasing in half-log increments. If the clinical Cmax for an agent had not been determined, the highest concentration tested was 10 microM.
2.3 Cell Culture. All cells were maintained in an incubator at 37 degrees C and 5% CO2 with 95% humidity. The PDC lines were cultured according to standard operating procedures established by the NCI PDMR. All PDCs were thawed and cultured in Matrigel-coated flasks prepared with a working solution of 1X Ham's F-12 nutrient mix, without supplementation (Invitrogen, cat. 11765054), 100 U/mL penicillin-streptomycin (Invitrogen, cat. 15140122), and 2.5% Matrigel (Corning Inc., cat. 354248) for the first three passages. The 857933-349-R-J2-PDC line was cultured in 6C/Colon 1B media, which includes advanced DMEM/F-12 (Thermo Fisher Scientific, cat. 12634028), 10 mM HEPES (Thermo Fisher Scientific, cat. 15630080), 1X GlutaMAX supplement (Thermo Fisher Scientific, cat. 35050061), 0.1 mg/mL primocin (InvivoGen, cat. ant-pm-2), 10% defined fetal bovine serum, heat inactivated (HyClone Laboratories Inc., cat. SH30070.03HI), 50% L-WRN conditioned media (ATCC, cat. CRL-3276), 1.25 mM N-Acetyl-L-cysteine (Sigma-Aldrich, cat. A9165), 10 mM nicotinamide (Sigma-Aldrich, cat. N0636), 1X B-27 supplement (Thermo Fisher Scientific, cat. 17504044), 1X N-2 supplement (Thermo Fisher Scientific, cat. 17502048), 10 microM Y-27632 dihydrochloride (Tocris Bioscience, cat. 1254), and 50 ng/mL human EGF recombinant protein (Thermo Fisher Scientific, cat. PHG0311). The 485176-168-R4-J1-PDC line was cultured in Panc media, which includes all 6C/Colon 1B media components plus 100 ng/mL human FGF-10 (Thermo Fisher Scientific, cat. 100-26), 500 nM SB-431542 (Selleckchem, cat. S1067), and gastrin (Tocris, cat. 3006).
[…]

[1] = second compound 0.0316 µM, first compound 0.0316 µM
[2] = second compound 0.0316 µM, first compound 0.1 µM
[3] = second compound 0.0316 µM, first compound 0.316 µM
[4] = second compound 0.0316 µM, first compound 1 µM
[5] = second compound 0.0316 µM, first compound 3.16 µM
[6] = second compound 0.0316 µM, first compound 10 µM
[7] = second compound 0.1 µM, first compound 0.0316 µM
[8] = second compound 0.1 µM, first compound 0.1 µM
[9] = second compound 0.1 µM, first compound 0.316 µM
[10] = second compound 0.1 µM, first compound 1 µM
[11] = second compound 0.1 µM, first compound 3.16 µM
[12] = second compound 0.1 µM, first compound 10 µM
[13] = second compound 0.316 µM, first compound 0.0316 µM
[14] = second compound 0.316 µM, first compound 0.1 µM
[15] = second compound 0.316 µM, first compound 0.316 µM
[16] = second compound 0.316 µM, first compound 1 µM
[17] = second compound 0.316 µM, first compound 3.16 µM
[18] = second compound 0.316 µM, first compound 10 µM
[19] = second compound 1 µM, first compound 0.0316 µM
[20] = second compound 1 µM, first compound 0.1 µM
[21] = second compound 1 µM, first compound 0.316 µM
[22] = second compound 1 µM, first compound 1 µM
[23] = second compound 1 µM, first compound 3.16 µM
[24] = second compound 1 µM, first compound 10 µM
[25] = second compound 3.16 µM, first compound 0.0316 µM
[26] = second compound 3.16 µM, first compound 0.1 µM
[27] = second compound 3.16 µM, first compound 0.316 µM
[28] = second compound 3.16 µM, first compound 1 µM
[29] = second compound 3.16 µM, first compound 3.16 µM
[30] = second compound 3.16 µM, first compound 10 µM
[31] = second compound 10 µM, first compound 0.0316 µM
[32] = second compound 10 µM, first compound 0.1 µM
[33] = second compound 10 µM, first compound 0.316 µM
[34] = second compound 10 µM, first compound 1 µM
[35] = second compound 10 µM, first compound 3.16 µM
[36] = second compound 10 µM, first compound 10 µM
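Further: spheroids exposed to the compounds for one week.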
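Wherever viability, T/C is given: percent of tumor spheroid viability relative to DMSO vehicle control wells.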

C#Cc1c(F)ccc2cc(O)cc(-c3ncc4c(N5CC6CCC(C5)N6)nc(OCC56CCCN5CC(F)C6)nc4c3F)c12 (centres undefined) + Cc1cnc(CNC(=O)c2c(=O)c3ccc(N4CCCN(C)CC4)nc3n3c2sc2ccccc23)cn1 gave an IC50 (second compound 0.0316 µM) of over 10 µM, an IC50 (second compound 0.1 µM) of over 10 µM and an IC50 (second compound 0.316 µM) of under 0.0316 µM. The IC50 (second compound 1 µM) was under 0.0316 µM, the IC50 (second compound 3.16 µM) was under 0.0316 µM and the IC50 (second compound 10 µM) was under 0.0316 µM. The viability, T/C [1] was 81.9%, the viability, T/C [2] was 80.5% and the viability, T/C [3] was 85.2%. For the same compound, the viability, T/C [4] was 83.9%, the viability, T/C [5] was 96.2% and the viability, T/C [6] was 83.5%. For the same compound, the viability, T/C [7] was 60.2%, the viability, T/C [8] was 60.3% and the viability, T/C [9] was 69.4%. The viability, T/C [10] was 59.8%, the viability, T/C [11] was 66.5% and the viability, T/C [12] was 56.5%. For the same compound, the viability, T/C [13] was 32.4%, the viability, T/C [14] was 26.6% and the viability, T/C [15] was 31.7%. It also gave a viability, T/C [16] of 34.7%, a viability, T/C [17] of 22.9% and a viability, T/C [18] of 31.9%. It also gave a viability, T/C [19] of 24.9%, a viability, T/C [20] of 23.8% and a viability, T/C [21] of 24.6%. The viability, T/C [22] was 28.2%, the viability, T/C [23] was 29.4% and the viability, T/C [24] was 23.9%. The viability, T/C [25] was 24.8%, the viability, T/C [26] was 32.1% and the viability, T/C [27] was 26.4%. The viability, T/C [28] was 28.7%, the viability, T/C [29] was 29.1% and the viability, T/C [30] was 9.52%. For the same compound, the viability, T/C [31] was 0.12%, the viability, T/C [32] was 0.16% and the viability, T/C [33] was 0.18%. The viability, T/C [34] was 0.13%, the viability, T/C [35] was 0.19% and the viability, T/C [36] was 0.16%.
For CC(C)(O)C1CCC(Nc2ccc3ncc(-c4cccc(C(F)(F)F)c4)n3n2)CC1 (centres undefined) + Cc1[nH]c2ccc(F)cc2c1-c1nc2c3cccnc3c3ncccc3c2[nH]1, the IC50 (second compound 0.0316 µM) was over 10 µM, the IC50 (second compound 0.1 µM) was over 10 µM and the IC50 (second compound 0.316 µM) was over 10 µM. For the same compound, the IC50 (second compound 1 µM) was 6.91 µM, the IC50 (second compound 3.16 µM) was under 0.0316 µM and the IC50 (second compound 10 µM) was under 0.0316 µM. The viability, T/C [1] was 102%, the viability, T/C [2] was 92.3% and the viability, T/C [3] was 92.1%. The viability, T/C [4] was 95.3%, the viability, T/C [5] was 99% and the viability, T/C [6] was 81.1%. The viability, T/C [7] was 106%, the viability, T/C [8] was 101% and the viability, T/C [9] was 92.8%. For the same compound, the viability, T/C [10] was 76.1%, the viability, T/C [11] was 84.9% and the viability, T/C [12] was 86.9%. It also gave a viability, T/C [13] of 101%, a viability, T/C [14] of 89.6% and a viability, T/C [15] of 83.1%. It also gave a viability, T/C [16] of 92.5%, a viability, T/C [17] of 81.8% and a viability, T/C [18] of 63.6%. The viability, T/C [19] was 69%, the viability, T/C [20] was 70.7% and the viability, T/C [21] was 73.6%. The viability, T/C [22] was 69.9%, the viability, T/C [23] was 58.6% and the viability, T/C [24] was 45.3%. The viability, T/C [25] was 9.24%, the viability, T/C [26] was 12.2% and the viability, T/C [27] was 10.3%. The viability, T/C [28] was 10.4%, the viability, T/C [29] was 12.7% and the viability, T/C [30] was 2.78%. For the same compound, the viability, T/C [31] was 1.94%, the viability, T/C [32] was 1.3% and the viability, T/C [33] was 2.71%. It also gave a viability, T/C [34] of 3.75%, a viability, T/C [35] of 4.01% and a viability, T/C [36] of 1%.
